Read-outs that look alike come from different tables or passages of the source.
Legend:
AgTG3 [1] = target: T1, AgTG3 (Anopheles gambiae, UniProt D2K8K8); experiment: biochemical; settings: for Activity against AgTG3 in dose–response assay: up to 100 μM
Protocol: Plugin-C (25 μg/well) was incubated in black 96-well Ni-coated plates (Pierce 15342) for 2 h at room temperature or overnight at 4°C. Plates were washed three times with 200 μL of TBS and loaded with 0.5 μg of AgTG3 in 50 μL TBS buffer. DHI inhibitors were added for 1 h to block the enzyme, followed by 50 μL of 2× assay buffer (2× TBS, 20 mM CaCl2, 100 μM FITC-CAD, 2 mM DTT). Wells were incubated for 60 min at room temperature, washed three times with 200 μL of TBS, and filled to a final volume of 100 μL for fluorescence measurements in a microplate reader (Biotek Synergy 2). The z-score was calculated based on the mean and standard deviation of three replicates of inhibitor compared to a DMSO control, zi=x¯DMSO-x¯i/σDMSO+σi .
The targeted chemical library was screened for inhibition of AgTG3 at 100 μM in a FITC-CAD plate assay (Figure 3A), performed in triplicate as previously described. Hit-calling was based on >67% decrease in fluorescence compared to DMSO and z > 5. Seven compounds fulfilled these criteria in the primary assay.
To verify the results of this preliminary assay, dose–response curves in the range of 0.5–100 μM were determined for 27 structurally related compounds within the targeted library (Additional file 3: Table S2 and Additional file 4: Table S3). […] Selected stereoisomers present in the targeted library were compared in equivalent dose–response assays. Inhibition of AgTG3 was specific for the (S)-DHI isomer of 1 (Figure 4A), the (R) isomer (4) displaying no activity (IC50 > 100 μM).

AgTG3 [2] = target: T1, AgTG3; experiment: AgTG3 plugin cross-linking assay (SDS-PAGE, FITC-CAD); type: biochemical; settings: for Inhibition of plugin-C cross-linking by AgTG3 (controls): 10 mM EDTA, 50 mM IA, 5 mM CaCl2
Protocol: Recombinant AgTG3 was pre-incubated with 100 μM inhibitors overnight at room temperature. AgTG3, with and without pretreatment with inhibitors (1 μg), was added to plugin-C (20 μg) and 0.5 mM FITC-cadaverine (FITC-CAD) in 25 mM HEPES, pH 7.5, 10 mM CaCl2, 1 mM DTT. The reaction was incubated at room temperature for 2 h and quenched by heat denaturation of the proteins in the presence of Laemmli buffer. The extent of cross-linking was analysed by sodium dodecyl sulphate-polyacrylamide gel electrophoresis (SDS-PAGE). The gel was scanned using Alpha Imager 2200 software.
Additional assays were performed to examine whether compounds 1 and 3 would inhibit the cross-linking of plugin-C by AgTG3 in solution, with FITC-CAD for fluorescent detection of plugin-C. Results were assessed by SDS/PAGE and UV illumination to detect FITC-CAD (Figure 7). […] In the presence of enzyme, substrate and calcium a ladder of fluorescent bands of increasing molecular weight (MW) is observed (lane 4), corresponding to cross-linked oligomers of plugin also labeled by FITC-CAD. […] However, the levels of AgTG3 in solution assays are higher in the cross-linking assay than the primary screen. The levels of plugin-C were also higher, which competes with slow-binding irreversible inhibitors such as 1 and 3 for the active site of AgTG3.
Figure 7 Inhibition of plugin cross-linking by DHI inhibitors. Fluorescent image of SDS-PAGE for FITC-cadaverine labeling and cross-linking of plugin by AgTG3. Lanes (1–4): (1) AgTG3, (2) Plugin-C, (3) AgTG3 and plugin-C, (4) AgTG3, plugin-C, and 5 mM CaCl2. Lanes (5–8): AgTG3, plugin-C, 5 mM CaCl2 and (5) 10 mM EDTA, (6) 50 mM IA, (7) 100 μM 1, (8) 100 μM 3. (below) Coomassie stain indicating relative levels of monomeric Plugin-C.

[3] = test system: model of human African trypanosomiasis; design: method as in PMID 21275056; settings: cited from earlier work
[4] = design: method as in PMID 21275056; settings: 50 mg/kg, intraperitoneal injection; cited from earlier work
tumor model = test system: tumor model; design: method as in PMID 22996645; settings: cited from earlier work
Drosophila = test system: Drosophila; design: method as in PMID 22996645; settings: delivered orally ad libitum, 10 μM in agar; cited from earlier work
human caspase-1 = target: T2, human caspase-1 (Homo sapiens, UniProt P29466); experiment: Cysteine protease inhibition assay, caspase-1 (Ac-YVAD-pNA); type: biochemical; settings: 3 at 100 μM, compared to a DMSO control, chromogenic assay
T2 construct: purchased Abcam
T2 sequence (P29466 120-297 limits assumed): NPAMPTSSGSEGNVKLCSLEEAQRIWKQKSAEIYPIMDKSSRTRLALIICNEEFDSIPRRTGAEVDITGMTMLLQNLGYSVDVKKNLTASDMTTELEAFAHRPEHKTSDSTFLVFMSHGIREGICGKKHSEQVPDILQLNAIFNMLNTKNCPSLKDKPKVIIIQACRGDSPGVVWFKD
T2 sequence (P29466 317-404 limits assumed): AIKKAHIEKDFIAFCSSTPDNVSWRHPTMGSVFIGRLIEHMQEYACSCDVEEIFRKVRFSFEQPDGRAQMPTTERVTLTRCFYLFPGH
Protocol: The activity of caspase-1 was determined by use of chromogenic substrate Ac-YVAD-pNA (Enzo Life Sciences, NY, USA). The assay was performed by adding 45 μL of 1 Unit caspase-1 (Abcam, MA, USA) and 5 μL of Ac-YVAD-pNA (final concentration, 5 μM) to 50 μL assay buffer (50 mM HEPES pH 7.4, 10 mM DTT, 1 mM EDTA, 0.1% CHAPS, 20% glycerol). Substrate cleavage after 1 h incubation at 37°C was measured by […] absorbance at 400 nm in a benchtop UV/Vis spectrophotometer (UV1800, Shimadzu, Kyoto, Japan).
(§1) Transglutaminases and cysteine proteases have a similar catalytic mechanism involving an active site cysteine and formation of a thioacyl intermediate. […] To test this hypothesis, the inhibition of two cysteine proteases, human caspase-1 and recombinant tobacco etch virus (TEV) protease by 3 at 100 μM were tested using a chromogenic and SDS-PAGE assay, respectively (Figure 9). […] Neither human caspase-1 nor TEV are endogenous proteins in A. gambiae, which may well contain other endogenous targets of 1–3, not least the two other transglutaminases in the A. gambiae genome.

[5] = target: T3, recombinant tobacco etch virus (TEV) protease (Tobacco etch virus, UniProt P04517); experiment: Cysteine protease inhibition assay, TEV protease (GST-gp78 cleavage, SDS-PAGE); type: biochemical; settings: 3 at 100 μM, compared to a DMSO control
T3 construct: recombinant tobacco etch virus (TEV) protease
Protocol: The activity of recombinant tobacco etch virus (TEV) protease was determined by cleavage of a fusion protein containing a TEV cleavage site between GST and a 17 kDa fragment of human gp78. TEV and GST-gp78 were incubated at 37°C for 10 min at a substrate:enzyme mass ratio of 10:1. The reaction was stopped by adding 3× loading buffer (150 mM Tris–HCl pH 6.8, 300 mM DTT, 6% (w/v) SDS, 0.06% (w/v) bromophenol blue, 30% (v/v) glycerol). Samples were heated at 95°C for 3 min and separated by 4–20% gradient SDS-PAGE.
as §1

[6] = dose–response curves in the range of 0.5–100 μM, FITC-CAD plate assay, read-out: IC50 for inhibition of AgTG3
[7] = dose–response, 27 dihydroisoxazole inhibitors, read-out: IC50 (Supplementary Table 3, AgTG3)

T1 sequence (D2K8K8 entry or part of it): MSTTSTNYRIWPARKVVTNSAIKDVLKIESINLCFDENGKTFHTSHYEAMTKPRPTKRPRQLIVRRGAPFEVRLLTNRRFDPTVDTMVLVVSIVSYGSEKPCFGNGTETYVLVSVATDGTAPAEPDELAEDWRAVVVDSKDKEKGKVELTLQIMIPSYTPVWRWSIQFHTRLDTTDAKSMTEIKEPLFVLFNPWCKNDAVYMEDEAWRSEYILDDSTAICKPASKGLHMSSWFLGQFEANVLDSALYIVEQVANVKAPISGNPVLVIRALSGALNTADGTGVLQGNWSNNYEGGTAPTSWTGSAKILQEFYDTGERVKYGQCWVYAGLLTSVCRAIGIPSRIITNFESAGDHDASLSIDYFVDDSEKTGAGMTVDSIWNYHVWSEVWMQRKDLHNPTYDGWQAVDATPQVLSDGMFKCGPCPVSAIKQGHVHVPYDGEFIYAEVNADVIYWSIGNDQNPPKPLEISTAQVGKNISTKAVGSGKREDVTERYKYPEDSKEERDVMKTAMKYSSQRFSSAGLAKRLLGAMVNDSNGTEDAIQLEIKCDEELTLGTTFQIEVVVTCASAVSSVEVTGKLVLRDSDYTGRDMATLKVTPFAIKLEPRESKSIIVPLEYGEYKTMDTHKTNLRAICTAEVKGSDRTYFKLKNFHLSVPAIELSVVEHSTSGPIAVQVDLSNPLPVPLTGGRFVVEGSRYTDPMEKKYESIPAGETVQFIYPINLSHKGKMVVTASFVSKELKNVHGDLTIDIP
T3 sequence (P04517 2038-2279): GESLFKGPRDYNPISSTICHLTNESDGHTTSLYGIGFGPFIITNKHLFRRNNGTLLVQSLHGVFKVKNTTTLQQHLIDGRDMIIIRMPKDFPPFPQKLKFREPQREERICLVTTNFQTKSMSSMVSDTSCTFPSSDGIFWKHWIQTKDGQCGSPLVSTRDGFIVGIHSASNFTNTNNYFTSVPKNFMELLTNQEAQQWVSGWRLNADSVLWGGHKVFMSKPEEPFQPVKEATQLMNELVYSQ

## O=C(N[C@@H](Cc1c[nH]c2ccc(F)cc12)C(=O)NC[C@@H]1CC(Br)=NO1)OCc1cnc2ccccc2c1
AgTG3 [1]; [6]
  IC50: 3.1 µM
AgTG3 [2]; 100 μM inhibitor, 5 mM CaCl2, intensity of high MW bands
  Inhibition of plugin-C cross-linking by AgTG3: inhibited the cross-linking of plugin

## O=C(N[C@@H](Cc1c[nH]c2ccc(F)cc12)C(=O)NC[C@@H]1CC(Br)=NO1)OCc1cnc2ccccc2n1
AgTG3 [1]; [6]
  IC50: 9.7 µM

## O=C(N[C@@H](Cc1c[nH]c2ccc(F)cc12)C(=O)NC[C@@H]1CC(Br)=NO1)OCc1ccnc2ccccc12
AgTG3 [1]; [6]
  IC50: 12.2 µM
AgTG3 [1]; [7]
  IC50: 12 µM

## CC(C)(C)OC(=O)N[C@@H](Cc1c[nH]c2ccc(F)cc12)C(=O)NC[C@@H]1CC(Br)=NO1
AgTG3 [1]; [6]
  IC50: 56 µM

## O=C(N[C@@H](Cc1c[nH]c2ccc(O)cc12)C(=O)NC[C@@H]1CC(Br)=NO1)OCc1cnc2ccccc2c1
AgTG3 [1]; [6]
  IC50: 4.3 µM

## O=C(N[C@@H](Cc1c[nH]c2ccc(F)cc12)C(=O)NC[C@H]1CC(Br)=NO1)OCc1cnc2ccccc2c1
AgTG3 [1]; [6]
  IC50: > 100 µM

## O=C(N[C@@H](Cc1csc2ccccc12)C(=O)NC[C@@H]1CC(Br)=NO1)OCc1cnc2ccccc2c1
AgTG3 [1]; [7]
  IC50: 18 µM

## N[C@H](C(=O)O)[C@@H]1CC(Br)=NO1 [3-bromoacivicin]
[3]
  Activity in vivo in a model of human African trypanosomiasis: active in vivo
[4]
  Acute toxicity in mice: no acute toxicity

## N[C@H](C(=O)O)[C@@H]1CC(Cl)=NO1 [Acivicin, acivicin]
Tumor model
  Activity in vivo in a tumor model: active in vivo
Drosophila
  Toxicity to Drosophila: non-toxic

## O=C(N[C@@H](Cc1ccccc1)C(=O)NC[C@@H]1CC(Br)=NO1)OCc1cnc2ccccc2c1 [Compound 5]
AgTG3 [1]; [6]
  IC50: 29 µM

## O=C(N[C@H](Cc1ccccc1)C(=O)NC[C@@H]1CC(Br)=NO1)OCc1cnc2ccccc2c1 [Compound 6]
AgTG3 [1]; [7]
  IC50: > 100 µM
AgTG3 [1]
  Activity against AgTG3 in dose–response assay: inactive

## O=C(N[C@@H](Cc1ccccc1F)C(=O)NC[C@@H]1CC(Br)=NO1)OCc1cnc2ccccc2c1 [Compound 8]
AgTG3 [1]; [6]
  IC50: ~30 µM
AgTG3 [1]; [7]
  IC50: 28 µM

## O=C(N[C@@H](Cc1ccc(I)cc1)C(=O)NC[C@@H]1CC(Br)=NO1)OCc1cnc2ccccc2c1 [Compound 11]
AgTG3 [1]; [7]
  IC50: > 100 µM
AgTG3 [1]
  Activity against AgTG3 in dose–response assay: inactive

## O=C(N[C@@H](Cc1ccc(O)cc1)C(=O)NC[C@H]1CC(Br)=NO1)OCc1ccccc1 [Compound D26]
AgTG3 [1]; [7]
  IC50: > 100 µM

## O=C(N[C@@H](Cc1ccc(O)cc1)C(=O)NC[C@@H]1CC(Br)=NO1)OCc1ccccc1 [Compound D27]
AgTG3 [1]; [7]
  IC50: > 100 µM

## O=C(N[C@@H](Cc1ccc(O)cc1)C(=O)NC[C@H]1CC(Br)=NO1)OCc1cnc2ccccc2c1 [Compound D62]
AgTG3 [1]; [7]
  IC50: > 100 µM

## O=C(N[C@@H](Cc1ccc(O)cc1)C(=O)NC[C@H]1CC(Br)=NO1)OCC1c2ccccc2-c2ccccc21 [Compound D71]
AgTG3 [1]; [7]
  IC50: > 100 µM

## O=C(N[C@@H](Cc1ccc(O)cc1)C(=O)NC[C@@H]1CC(Br)=NO1)OCC1c2ccccc2-c2ccccc21 [Compound D73]
AgTG3 [1]; [7]
  IC50: > 100 µM

## CN(C(=O)OCc1cnc2ccccc2c1)[C@@H](Cc1ccccc1)C(=O)NC[C@@H]1CC(Br)=NO1 [Compound D83]
AgTG3 [1]; [7]
  IC50: > 100 µM

## O=C(N[C@@H](Cc1ccc(-c2ccccc2)cc1)C(=O)NC[C@@H]1CC(Br)=NO1)OCc1cnc2ccccc2c1 [Compound D84]
AgTG3 [1]; [7]
  IC50: > 100 µM

## O=C(N[C@@H](CCc1ccccc1)C(=O)NC[C@@H]1CC(Br)=NO1)OCc1cnc2ccccc2c1 [Compound D85]
AgTG3 [1]; [7]
  IC50: > 100 µM

## O=C(N[C@@H](Cc1cccc2ccccc12)C(=O)NC[C@@H]1CC(Br)=NO1)OCc1cnc2ccccc2c1 [Compound D86]
AgTG3 [1]; [7]
  IC50: > 100 µM

## C[C@@](Cc1ccccc1)(NC(=O)OCc1cnc2ccccc2c1)C(=O)NC[C@@H]1CC(Br)=NO1 [Compound D91]
AgTG3 [1]; [7]
  IC50: > 100 µM

## C[C@@H](c1ccccc1)[C@H](NC(=O)OCc1cnc2ccccc2c1)C(=O)NC[C@@H]1CC(Br)=NO1 [Compound D94]
AgTG3 [1]; [7]
  IC50: 84 µM

## C#Cc1ccc(COC(=O)N[C@@H](Cc2ccc(O)cc2)C(=O)NC[C@@H]2CC(Br)=NO2)cc1 [Compound D142]
AgTG3 [1]; [7]
  IC50: > 100 µM

## [N-]=[N+]=Nc1ccc(COC(=O)N[C@@H](Cc2ccc(O)cc2)C(=O)NC[C@@H]2CC(Br)=NO2)cc1 [Compound D143]
AgTG3 [1]; [7]
  IC50: > 100 µM

## O=C(O)CN(CCN(CC(=O)O)CC(=O)O)CC(=O)O [EDTA, reference compound]
AgTG3 [2]
  Inhibition of plugin-C cross-linking by AgTG3 (controls): Cross-linking is inhibited

## NC(=O)CI [IA, iodoacetamide, reference compound]
Human caspase-1
  Inhibition of caspase-1: potent inhibitor of the enzyme
AgTG3 [2]
  Inhibition of plugin-C cross-linking by AgTG3 (controls): Cross-linking is inhibited
[5]
  Inhibition of TEV protease: potent inhibitor of the enzyme

Reference: PMC4113009, “Dihydroisoxazole inhibitors of Anopheles gambiae seminal transglutaminase AgTG3” (Malaria Journal, 2014)
